Test results: PubChem BioAssay AID2425 (Vanderbilt High Throughput Screening Facility, 2010)
Activity calls are given as the source filed them.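 Rule for the calls: active = fitted dose-response curve with goodness of fit R² above 0.5; inactive = the rest.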

Target: Muscarinic acetylcholine receptor M1 (Rattus norvegicus) (UniProt P08482)
Assay: concentration-dependent potentiation of ACh at M1 – cell-based, calcium mobilization, CHO-K1, ACh EC20, dose response (AID 2425)
Settings: CHO-K1 rat M1, Fluo-4 calcium, PAM with ACh EC20

Muscarinic acetylcholine receptor M1 (Rattus norvegicus), sequence (P08482 whole entry, looked up): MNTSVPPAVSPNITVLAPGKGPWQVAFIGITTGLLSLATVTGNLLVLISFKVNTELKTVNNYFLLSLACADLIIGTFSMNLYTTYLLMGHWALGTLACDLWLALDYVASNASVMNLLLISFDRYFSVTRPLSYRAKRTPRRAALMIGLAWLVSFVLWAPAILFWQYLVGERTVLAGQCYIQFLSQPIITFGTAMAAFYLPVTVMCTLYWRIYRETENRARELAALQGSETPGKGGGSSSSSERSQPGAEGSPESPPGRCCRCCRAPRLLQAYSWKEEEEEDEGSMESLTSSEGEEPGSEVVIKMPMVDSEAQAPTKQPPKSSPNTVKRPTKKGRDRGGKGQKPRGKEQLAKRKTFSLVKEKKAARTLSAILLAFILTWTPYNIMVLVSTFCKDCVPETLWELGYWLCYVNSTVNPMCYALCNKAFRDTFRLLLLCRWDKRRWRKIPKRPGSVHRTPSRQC

EC50 [µM]	potentiation, % max ACh (at 30 µM (top of the series))	SMILES
5.86		Cc1cc(NC(=O)CS(=O)(=O)c2cn(Cc3cccc(Cl)c3)c3ccccc23)no1
	inactive	O=C1C(=O)N(Cc2ccc(Oc3ccccc3)cc2)c2ccc(OC(F)(F)F)cc21
